Calls of active or inactive are those of the source. The calls are words filed in the database; no cut-off is given here.
The compounds below were run on Streptococcus pneumoniae (assay: Antibacterial activity against Streptococcus pneumoniae at 64 ug/ml after 20 hrs).
Format: functional, organism-based
In the case of COC(=O)[C@H](CCC(N)=O)NC(=O)/C(C)=C/CC[C@]1(C)C(=O)C=C[C@]23CC4C[C@H](O[C@]4(C)C2)C31 (stereo partly drawn), the Activity was “inactive”. C[C@@]1(CCC(=O)Nc2c(O)ccc(C(=O)O)c2O)C(=O)C=CC23CCC(CC21)[C@@](O)(CO)C3 (stereo partly drawn) was tested, and the Activity was “inactive”. With COC(=O)c1ccc(O)c(NC(=O)CC[C@]2(C)C(=O)C=CC34C[C@@]5(C)O[C@@H](CC5[C@H]3O)C42)c1O (stereo partly drawn) the Activity was “inactive”. In the case of COC(=O)c1ccc(O)c(NC(=O)CC[C@]2(C)C(=O)C=CC34CCC(CC32)[C@@](O)(CO)C4)c1O (stereo partly drawn), the Activity was “inactive”. CC12C[C@@]34C=CC(=O)[C@@](C)(CCC(=O)Nc5c(O)ccc(C(=O)O)c5O)C3[C@H](CC1C4)O2 (stereo partly drawn) was tested, and the Activity was “inactive”. With COC(=O)c1ccc(O)c(NC(=O)CC[C@]2(C)C(=O)C=C[C@]34CC5C[C@H](O[C@]5(C)C3O)C42)c1O (stereo partly drawn) the Activity was “inactive”. C=C1CC23C=CC(=O)[C@@](C)(CCC(=O)Nc4c(O)ccc(C(=O)O)c4O)C2CC1C[C@H]3O (stereo partly drawn) was tested, and the Activity was “inactive”.

The compounds below were run on Enterococcus faecium (assay: Antibacterial activity against Enterococcus faecium at 64 ug/ml after 20 hrs).
Format: functional, organism-based
COC(=O)[C@H](CCC(N)=O)NC(=O)/C(C)=C/CC[C@]1(C)C(=O)C=C[C@]23CC4C[C@H](O[C@]4(C)C2)C31 (stereo partly drawn) was tested, and the Activity was “inactive”. For C[C@@]1(CCC(=O)Nc2c(O)ccc(C(=O)O)c2O)C(=O)C=CC23CCC(CC21)[C@@](O)(CO)C3 (stereo partly drawn), the Activity was “inactive”. In the case of COC(=O)c1ccc(O)c(NC(=O)CC[C@]2(C)C(=O)C=CC34C[C@@]5(C)O[C@@H](CC5[C@H]3O)C42)c1O (stereo partly drawn), the Activity was “inactive”. COC(=O)c1ccc(O)c(NC(=O)CC[C@]2(C)C(=O)C=CC34CCC(CC32)[C@@](O)(CO)C4)c1O (stereo partly drawn) was tested, and the Activity was “inactive”. For CC12C[C@@]34C=CC(=O)[C@@](C)(CCC(=O)Nc5c(O)ccc(C(=O)O)c5O)C3[C@H](CC1C4)O2 (stereo partly drawn), the Activity was “inactive”. In the case of COC(=O)c1ccc(O)c(NC(=O)CC[C@]2(C)C(=O)C=C[C@]34CC5C[C@H](O[C@]5(C)C3O)C42)c1O (stereo partly drawn), the Activity was “inactive”. For C=C1CC23C=CC(=O)[C@@](C)(CCC(=O)Nc4c(O)ccc(C(=O)O)c4O)C2CC1C[C@H]3O (stereo partly drawn), the Activity was “inactive”.

These compounds were tested on Escherichia coli (assay: Antibacterial activity against Escherichia coli at 64 ug/ml after 20 hrs).
Format: functional, organism-based
In the case of COC(=O)[C@H](CCC(N)=O)NC(=O)/C(C)=C/CC[C@]1(C)C(=O)C=C[C@]23CC4C[C@H](O[C@]4(C)C2)C31 (stereo partly drawn), the Activity was “inactive”. In the case of C[C@@]1(CCC(=O)Nc2c(O)ccc(C(=O)O)c2O)C(=O)C=CC23CCC(CC21)[C@@](O)(CO)C3 (stereo partly drawn), the Activity was “inactive”. In the case of COC(=O)c1ccc(O)c(NC(=O)CC[C@]2(C)C(=O)C=CC34C[C@@]5(C)O[C@@H](CC5[C@H]3O)C42)c1O (stereo partly drawn), the Activity was “inactive”. COC(=O)c1ccc(O)c(NC(=O)CC[C@]2(C)C(=O)C=CC34CCC(CC32)[C@@](O)(CO)C4)c1O (stereo partly drawn) was tested, and the Activity was “inactive”. CC12C[C@@]34C=CC(=O)[C@@](C)(CCC(=O)Nc5c(O)ccc(C(=O)O)c5O)C3[C@H](CC1C4)O2 (stereo partly drawn) was tested, and the Activity was “inactive”. In the case of COC(=O)c1ccc(O)c(NC(=O)CC[C@]2(C)C(=O)C=C[C@]34CC5C[C@H](O[C@]5(C)C3O)C42)c1O (stereo partly drawn), the Activity was “inactive”. C=C1CC23C=CC(=O)[C@@](C)(CCC(=O)Nc4c(O)ccc(C(=O)O)c4O)C2CC1C[C@H]3O (stereo partly drawn) was tested, and the Activity was “inactive”.

The compounds below were run on Enterococcus faecalis (assay: Antibacterial activity against Enterococcus faecalis at 64 ug/ml after 20 hrs).
Format: functional, organism-based
For COC(=O)[C@H](CCC(N)=O)NC(=O)/C(C)=C/CC[C@]1(C)C(=O)C=C[C@]23CC4C[C@H](O[C@]4(C)C2)C31 (stereo partly drawn), the Activity was “inactive”. For C[C@@]1(CCC(=O)Nc2c(O)ccc(C(=O)O)c2O)C(=O)C=CC23CCC(CC21)[C@@](O)(CO)C3 (stereo partly drawn), the Activity was “inactive”. COC(=O)c1ccc(O)c(NC(=O)CC[C@]2(C)C(=O)C=CC34C[C@@]5(C)O[C@@H](CC5[C@H]3O)C42)c1O (stereo partly drawn) was tested, and the Activity was “inactive”. With COC(=O)c1ccc(O)c(NC(=O)CC[C@]2(C)C(=O)C=CC34CCC(CC32)[C@@](O)(CO)C4)c1O (stereo partly drawn) the Activity was “inactive”. For CC12C[C@@]34C=CC(=O)[C@@](C)(CCC(=O)Nc5c(O)ccc(C(=O)O)c5O)C3[C@H](CC1C4)O2 (stereo partly drawn), the Activity was “inactive”. COC(=O)c1ccc(O)c(NC(=O)CC[C@]2(C)C(=O)C=C[C@]34CC5C[C@H](O[C@]5(C)C3O)C42)c1O (stereo partly drawn) was tested, and the Activity was “inactive”. C=C1CC23C=CC(=O)[C@@](C)(CCC(=O)Nc4c(O)ccc(C(=O)O)c4O)C2CC1C[C@H]3O (stereo partly drawn) was tested, and the Activity was “inactive”.

What follows are compounds tested on Haemophilus influenzae (assay: Antibacterial activity against Haemophilus influenzae at 64 ug/ml after 20 hrs).
Format: functional, organism-based
COC(=O)[C@H](CCC(N)=O)NC(=O)/C(C)=C/CC[C@]1(C)C(=O)C=C[C@]23CC4C[C@H](O[C@]4(C)C2)C31 (stereo partly drawn) was tested, and the Activity was “inactive”. With C[C@@]1(CCC(=O)Nc2c(O)ccc(C(=O)O)c2O)C(=O)C=CC23CCC(CC21)[C@@](O)(CO)C3 (stereo partly drawn) the Activity was “inactive”. COC(=O)c1ccc(O)c(NC(=O)CC[C@]2(C)C(=O)C=CC34C[C@@]5(C)O[C@@H](CC5[C@H]3O)C42)c1O (stereo partly drawn) was tested, and the Activity was “inactive”. For COC(=O)c1ccc(O)c(NC(=O)CC[C@]2(C)C(=O)C=CC34CCC(CC32)[C@@](O)(CO)C4)c1O (stereo partly drawn), the Activity was “inactive”. With CC12C[C@@]34C=CC(=O)[C@@](C)(CCC(=O)Nc5c(O)ccc(C(=O)O)c5O)C3[C@H](CC1C4)O2 (stereo partly drawn) the Activity was “inactive”. In the case of COC(=O)c1ccc(O)c(NC(=O)CC[C@]2(C)C(=O)C=C[C@]34CC5C[C@H](O[C@]5(C)C3O)C42)c1O (stereo partly drawn), the Activity was “inactive”. C=C1CC23C=CC(=O)[C@@](C)(CCC(=O)Nc4c(O)ccc(C(=O)O)c4O)C2CC1C[C@H]3O (stereo partly drawn) was tested, and the Activity was “inactive”.

Each compound was assayed against T1, 3-oxoacyl-[acyl-carrier-protein] synthase 2 (Staphylococcus aureus) (UniProt Q5TKS0) (assay: Inhibition of Staphylococcus aureus […] assessed as [2-14C]-malonyl CoA incorporation after 90 mins by cell free-based scintillation counting).
T1 sequence (whole entry): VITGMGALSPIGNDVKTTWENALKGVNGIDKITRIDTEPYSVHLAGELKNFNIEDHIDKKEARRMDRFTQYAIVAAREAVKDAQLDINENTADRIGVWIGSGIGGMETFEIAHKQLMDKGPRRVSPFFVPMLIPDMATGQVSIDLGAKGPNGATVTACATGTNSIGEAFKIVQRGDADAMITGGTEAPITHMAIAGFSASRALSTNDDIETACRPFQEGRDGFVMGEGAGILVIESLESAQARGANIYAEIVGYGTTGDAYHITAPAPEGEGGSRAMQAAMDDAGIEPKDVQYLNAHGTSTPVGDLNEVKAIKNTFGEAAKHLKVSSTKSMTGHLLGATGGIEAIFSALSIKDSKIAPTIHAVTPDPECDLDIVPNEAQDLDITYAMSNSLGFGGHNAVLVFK
For COC(=O)[C@H](CCC(N)=O)NC(=O)/C(C)=C/CC[C@]1(C)C(=O)C=C[C@]23CC4C[C@H](O[C@]4(C)C2)C31 (stereo partly drawn), the inhibition was “inactive”. C[C@@]1(CCC(=O)Nc2c(O)ccc(C(=O)O)c2O)C(=O)C=CC23CCC(CC21)[C@@](O)(CO)C3 (stereo partly drawn) was tested, and the inhibition was “inactive”. With COC(=O)c1ccc(O)c(NC(=O)CC[C@]2(C)C(=O)C=CC34C[C@@]5(C)O[C@@H](CC5[C@H]3O)C42)c1O (stereo partly drawn) the inhibition was “inactive”. With COC(=O)c1ccc(O)c(NC(=O)CC[C@]2(C)C(=O)C=CC34CCC(CC32)[C@@](O)(CO)C4)c1O (stereo partly drawn) the inhibition was “inactive”. In the case of COC(=O)c1ccc(O)c(NC(=O)CC[C@]2(C)C(=O)C=C[C@]34CC5C[C@H](O[C@]5(C)C3O)C42)c1O (stereo partly drawn), the inhibition was “inactive”. C=C1CC23C=CC(=O)[C@@](C)(CCC(=O)Nc4c(O)ccc(C(=O)O)c4O)C2CC1C[C@H]3O (stereo partly drawn) was tested, and the inhibition was “inactive”.

The compounds below were run on Staphylococcus aureus (assay: Antibacterial activity against Staphylococcus aureus at 64 ug/ml after 20 hrs).
Format: functional, organism-based
In the case of COC(=O)[C@H](CCC(N)=O)NC(=O)/C(C)=C/CC[C@]1(C)C(=O)C=C[C@]23CC4C[C@H](O[C@]4(C)C2)C31 (stereo partly drawn), the Activity was “inactive”. For C[C@@]1(CCC(=O)Nc2c(O)ccc(C(=O)O)c2O)C(=O)C=CC23CCC(CC21)[C@@](O)(CO)C3 (stereo partly drawn), the Activity was “inactive”. With COC(=O)c1ccc(O)c(NC(=O)CC[C@]2(C)C(=O)C=CC34C[C@@]5(C)O[C@@H](CC5[C@H]3O)C42)c1O (stereo partly drawn) the Activity was “inactive”. For COC(=O)c1ccc(O)c(NC(=O)CC[C@]2(C)C(=O)C=CC34CCC(CC32)[C@@](O)(CO)C4)c1O (stereo partly drawn), the Activity was “inactive”. With CC12C[C@@]34C=CC(=O)[C@@](C)(CCC(=O)Nc5c(O)ccc(C(=O)O)c5O)C3[C@H](CC1C4)O2 (stereo partly drawn) the Activity was “inactive”. For COC(=O)c1ccc(O)c(NC(=O)CC[C@]2(C)C(=O)C=C[C@]34CC5C[C@H](O[C@]5(C)C3O)C42)c1O (stereo partly drawn), the Activity was “inactive”. With C=C1CC23C=CC(=O)[C@@](C)(CCC(=O)Nc4c(O)ccc(C(=O)O)c4O)C2CC1C[C@H]3O (stereo partly drawn) the Activity was “inactive”.

Source: ChEMBL document CHEMBL1773043, “Platensimycin and platencin congeners from Streptomyces platensis” (J Nat Prod, 2011)
